“Also recorded” adds a separate entry of the source.
Columns and labels:
[1] = Neu5Ac/Neu5Gc glycan microarray analysis; format: binding; details: ZBiotech Neu5Gc/Neu5Ac N-Glycan Array, FIG. 1A
Source text: A Neu5Ac/Neu5Gc glycan microarray (as previously used in Wang et al, 2018, Biophys Biochem Res Commun 500:765-771; ZBiotech Neu5Gc/Neu5Ac N-Glycan Array) was utilised to determine the binding of SubBA12 to sialylated glycans with SubB2M used as a control. This glycan array comprises over 40 match pairs of glycans covalently linked to the array slide surface. Each pair of glycans is identical apart from the presence of either a Neu5Ac or Neu5Gc moiety.
Neu5Ac/Neu5Gc glycan array slides were purchased from Z-Biotech (Aurora, Colorado, USA, https://www.zbiotech.com/neu5gc-neu5ac-n-glycan-array.html). A 16-subarray slide array was used and glycan array analysis of SubB2M and SubBA12 was performed as per the manufacturer's protocols. Arrays were scanned using a Innocan 1100AL laser scanner and analysed using Mapix array analysis software.

[2] = SPR analysis of glycan binding (all tested glycans); details: lectin immobilized on CM5 chip; glycans up to a concentration of 20 μM; FIG. 1B
Procedure: SubBA12 was analysed for binding to a range of Neu5Ac, Neu5Gc and non-sialylated synthetic oligosaccharides using SPR.
For glycan analysis, SubB2M was immobilized through flow cells 2 and 3 and SubBA12 was immobilized through flow cell 4 (capture levels: 5000-6000 Response Units (RU)) onto a series S sensor chip CM5 (GE) using the NHS capture kit. Flow cell 1 was run as a blank immobilization. Glycans purchased from Chemily Glycoscience (Atlanta, GA) were analysed across a five-fold dilution series in PBS at a maximum concentration of 20 μM. Analysis was run using single cycle analysis and double reference subtraction on the Biacore S200 evaluation software.

[3] = Ser12>Ala12 mutation; described previously (Byres et al, 2008); cited from earlier work

In the case of “SubBA12: mutant form of SubB (Ser12>Ala12) having the amino acid sequence of SEQ ID NO: 4; lacks or has substantially reduced sialic acid binding”, the “binding to Neu5Ac-containing glycans on glycan array” value [1] is reported as “Essentially no binding; also recorded: little to no recognition”, the “binding to Neu5Gc-containing glycans on glycan array” value [1] is reported as “Essentially no binding; also recorded: little to no recognition” and the “binding (concentration dependent interaction) to any of the tested glycans by SPR” value [2] is reported as “No binding; also recorded: No concentration dependent interactions”. The “binding to sialylated glycans” value [3] was “cannot bind”.
